Laboratory results as given in patent publication US11130741B2 (Bioimics AB, priority 2016, dated 2021).
Values after ≈ are worked out from the molar mass of the structure shown. Read-outs that look alike come from different tables or passages of the source. Blank lines part the entries; values can stand above or below the molecule they belong to.

Columns and labels:
[1] = system: Staphylococcus aureus (ATCC25923); assay: MIC, broth microdilution (CLSI), Staphylococcus aureus ATCC25923; details: ATCC25923, read-out: S. aureus ("Clinical") MIC
[2] = system: S. aureus MRSA ATCC 33591; assay: MIC, S. aureus MRSA ATCC 33591; assay type: cell-based; details: Staphylococcus aureus; read-out: MIC S. aureus MRSA ATCC 33591
[3] = system: S. pneumoniae ATCC 49619; assay: MIC, S. pneumoniae ATCC 49619; assay type: cell-based; details: Streptococcus pneumoniae, ATCC49619
[4] = system: Pseudomonas aeruginosa (ATCC27853); assay: microbe, parasite or virus in culture; assay type: cell-based; details: read-out: MIC P. aeruginosa ATCC 27853
[5] = system: Escherichia coli (ATCC25922); assay: MIC, broth microdilution (CLSI), Escherichia coli ATCC25922
[6] = system: E. coli RNase P RNA, M1 RNA; assay: Initial inhibition of RNase P activity (normalised cleavage of pATSerUG at maximum compound concentration); assay type: biochemical; details: normalised cleavage (cleavage with compound / without compound)
[7] = system: H. influenzae ATCC 49247; assay: MIC, H. influenzae ATCC 49247; assay type: cell-based; details: Haemophilus influenzae, ATCC49247
[8] = system: N. gonorrhoeae 612501; assay: MIC, N. gonorrhoeae 612501; assay type: cell-based; details: Neisseria gonorrhoeae
[9] = system: P. aeruginosa NTUH-974 (MDR); assay: MIC, P. aeruginosa NTUH-974 (MDR); assay type: cell-based
[10] = system: Enterococcus faecalis (ATCC29212); assay: MIC, broth microdilution (CLSI), Enterococcus faecalis ATCC29212; assay type: cell-based; details: read-out: MIC E. faecalis ATCC 29212
[11] = system: S. aureus ATCC 29213; assay: MIC, S. aureus ATCC 29213 + 50% HS; assay type: cell-based; details: Staphylococcus aureus, ATCC29213
[12] = system: E. faecium ATCC 700221; assay: MIC, E. faecium ATCC 700221; assay type: cell-based; details: Enterococcus faecium, ATCC700221; read-out: MIC E. faecium ATCC 700221
[13] = system: K. pneumoniae ATCC 43816; assay: MIC, K. pneumoniae ATCC 43816; assay type: cell-based; details: Klebsiella pneumoniae, ATCC43816
[14] = system: A. baumannii ATCC 17978; assay: MIC, A. baumannii ATCC 17978; assay type: cell-based; details: Acinetobacter baumannii, ATCC17978
[15] = system: E. coli JW5503; assay: MIC, E. coli JW5503; assay type: cell-based; details: Escherichia coli, JW5503, read-out: MIC E. coli JW5503
[16] = system: Staphylococcus aureus subsp. aureus (ATCC29213); assay: MIC, broth microdilution (CLSI), Staphylococcus aureus subsp. aureus ATCC29213; assay type: cell-based
[17] = system: E. coli RNase P RNA, M1 RNA; assay: Inhibition of bacterial RNase P activity, IC50 determination (cleavage of pATSerUG by M1 RNA); assay type: biochemical; details: NI = No inhibition
[18] = system: S. aureus USA300 MRSA BAA 1717; assay: MIC, S. aureus USA300 MRSA BAA 1717; assay type: cell-based; details: Staphylococcus aureus
[19] = system: M. phlei ATCC 11758; assay: MIC, M. phlei ATCC 11758; assay type: cell-based; details: Mycolicibacterium phlei, ATCC11758
[20] = system: H. pylori ATCC 43504; assay: MIC, H. pylori ATCC 43504; assay type: cell-based; details: Helicobacter pylori, ATCC43504
[21] = system: M. fortuitum ATCC 110; assay: MIC, M. fortuitum ATCC 110; assay type: cell-based; details: Mycolicibacterium fortuitum, ATCC110
[22] = ATCC25922, read-out: E. coli MIC, Table 15, NI = No inhibition
[23] = ATCC29213, Table 16, read-out: MIC S. aureus ATCC 29213

SMILES: Nc1cc(C(F)(F)F)cc2c1N(CCCn1ccnc1)c1ccccc1S2 [compound 44, 10-(3-(1H-imidazol-1-yl)propyl)-3-(trifluoromethyl)-10H-phenothiazin-1-amine]
MIC [1]: 2 µg/mL (≈ 5.12 µM)
MIC [2]: 64 µg/mL (≈ 164 µM)
MIC [3]: 16 µg/mL (≈ 41 µM)
MIC [4]: > 128 µg/mL
MIC [5, 22]: > 100 µg/mL
MIC ([5]; ATCC25922, read-out: MIC E. coli ATCC 25922): > 128 µg/mL
Normalised RNase P cleavage (fraction of control) ([6]; at 8 μM): 1.06
MIC [7]: 16 µg/mL (≈ 41 µM)
MIC [8]: 2 µg/mL (≈ 5.12 µM)
MIC ([9]; Pseudomonas aeruginosa, read-out: MIC P. aeruginosa NTUH-974 (MDR)): > 128 µg/mL
MIC [10]: 16 µg/mL (≈ 41 µM)
MIC [11]: > 128 µg/mL
MIC [12]: 8 µg/mL (≈ 20.5 µM)
MIC [13]: > 128 µg/mL
MIC [14]: > 128 µg/mL
MIC [15]: 8 µg/mL (≈ 20.5 µM)
MIC [16, 23]: 4 µg/mL (≈ 10.2 µM)

MIC [1]: 47 µg/mL (≈ 128 µM)
MIC [5, 22]: > 100 µg/mL
SMILES: CN(C)CCCN1c2ccccc2Sc2cc(C(F)(F)F)cc(N)c21 [compound 42, 10-(3-(dimethylamino)propyl)-3-(trifluoromethyl)-10H-phenothiazin-1-amine]
Normalised RNase P cleavage (fraction of control) ([6]; at 8 μM): 1.02

MIC [1]: 4 µg/mL (≈ 14.2 µM)
MIC [5, 22]: > 100 µg/mL
SMILES: Nc1cc(C(F)(F)F)cc2c1Nc1ccccc1S2 [compound 2, 3-(trifluoromethyl)-10H-phenothiazin-1-amine]
Normalised RNase P cleavage (fraction of control) ([6]; at 8 μM): 0.42
Normalised RNase P cleavage (fraction of control) ([6]; at 10 μM): 0.84

MIC [1]: 13 µg/mL (≈ 35.4 µM)
MIC [5, 22]: 13 µg/mL (≈ 35.4 µM)
IC50 [17]: > 100 µM
SMILES: C[C@@H](N)CC(=O)Nc1cc(C(F)(F)F)cc2c1Nc1ccccc1S2 [compound 67, (R)-3-amino-N-(3-(trifluoromethyl)-10H-phenothiazin-1-yl)butanamide]
Normalised RNase P cleavage (fraction of control) ([6]; at 8 μM): 0.19

MIC [1]: 27 µg/mL (≈ 64.1 µM)
MIC [5, 22]: > 100 µg/mL
IC50 [17]: 76 µM
SMILES: C=CC(=O)N(CCCN(C)C)c1cc(C(F)(F)F)cc2c1Nc1ccccc1S2 [compound 39, N-(3-(dimethylamino)propyl)-N-(3-(trifluoromethyl)-10H-phenothiazin-1-yl)acrylamide]
Normalised RNase P cleavage (fraction of control) ([6]; at 8 μM): 0.58

MIC [1]: 8 µg/mL (≈ 22.6 µM)
MIC [5, 22]: 16 µg/mL (≈ 45.3 µM)
IC50 [17]: > 100 µM
SMILES: NCCC(=O)Nc1cc(C(F)(F)F)cc2c1Nc1ccccc1S2 [compound 30, 3-amino-N-(3-(trifluoromethyl)-10H-phenothiazin-1-yl)propanamide]
Normalised RNase P cleavage (fraction of control) ([6]; at 8 μM): 0.49

SMILES: CCN(CC)c1ccc2c(c1)Sc1cc(C(F)(F)F)cc(NC3CCN(CCN)CC3)c1N2.Cl.Cl.Cl [compound 306, N1-(1-(2-aminoethyl)piperidin-4-yl)-N7,N7-diethyl-3-(trifluoromethyl)-10H-phenothiazine-1,7-diamine hydrochloride]
MIC [2]: 2 µg/mL
MIC [3]: 4 µg/mL
MIC [18]: 2 µg/mL
MIC [4]: 32 µg/mL
MIC [5, 22]: 4 µg/mL
MIC ([5]; ATCC25922, read-out: MIC E. coli ATCC 25922, Table 16): 4 µg/mL
MIC [19]: 8 µg/mL
MIC [7]: 8 µg/mL
MIC [8]: 2 µg/mL
MIC ([9]; Pseudomonas aeruginosa; read-out: MIC P. aeruginosa NTUH-974 (MDR)): 32 µg/mL
MIC [10]: 4 µg/mL
MIC [11]: 8 µg/mL
MIC [12]: 2 µg/mL
MIC [13]: 4 µg/mL
MIC [14]: 8 µg/mL
MIC [20]: 32 µg/mL
MIC [15]: 2 µg/mL
MIC ([16]; ATCC29213, Table 15, read-out: S. aureus ("wound") (MIC)): 2 µg/mL
MIC [16, 23]: 2 µg/mL
IC50 [17]: 50 µM
MIC [21]: 4 µg/mL
